From patent US9365587B2, “Synthesis of carbamoylpyridone HIV integrase inhibitors and intermediates” (Shionogi & Co., Ltd., priority 2008, dated 2016)

What was measured:
Details in all cases: crystal
[1] = solubility of the crystals in water or saline; assay type: physicochemical
[2] = pharmacokinetics of the crystals (BA, Cmax, Tmax); assay type: in vivo
[3] = stability of the crystals against heat or light; assay type: physicochemical

Compound: C[C@@H]1CCO[C@H]2Cn3cc(C(=O)NCc4ccc(F)cc4F)c(=O)c(O)c3C(=O)N12 [Compound 13]
- solubility in water or saline [1]: high
- bioavailability (BA) [2]: high
- maximum drug concentration (Cmax) [2]: high
- maximum drug concentration time (Tmax) [2]: short
- stability against heat or light [3]: high
